# From patent US20260297070A1, “CYCLIC [COMPOUND LEFT OUT] WRN INHIBITORS” (Nimbus Wadjet, Inc., priority 2023, published 2026)
# Target: T1, human Werner helicase (WRN-BV08, Uniprot Q14191, amino acids 517-1235 with L1074F point mutation) (Homo sapiens, UniProt Q14191, L1074F)
# T1 construct: Uniprot Q14191, amino acids 517-1235 with L1074F point mutation; TEV-cleavable 8×His (C, cleaved yes); made in house; host or cells: Sf9 insect cells (baculovirus)
# Experiment: WRN (BV08) ADP-Glo Assay
# Assay type: biochemical
# Conditions: 0.15 nM WRN, 5 μM ATP, 0.1 nM DNA duplex, 15 min preincubation, 60 min at 25° C., pH 7.5, 1% DMSO; read-out: ADP-Glo_hWRN_IC50
# From the text: Example 2: WRN (BV08) ADP-Glo Assay Protocol
# Bovine skin gelatin (BSG), dimethyl sulfoxide (DMSO), Pluronic F-127 and Tris(2-carboxyethyl)phosphine hydrochloride solution (TCEP) were purchased from Sigma-Aldrich at the highest level of purity possible. Bicine buffer solution was purchased from Alfa Aesar and compound NSC-617145 was purchased from Tocris. DNA duplex was synthesized at BGI (Shenzhen, China) and was composed of strand 1 with the sequence 5′-[…]-3′ (SEQ ID NO.: 1) and strand 2 with the sequence 5′-[…]-3′ (SEQ ID NO.: 2). DNA strands were annealed by heating to 95° C. for 5 minutes followed by slow cooling to room temperature. Compounds in 100% DMSO (0.1 μl) were spotted into a 384-well white polystyrene Optiplate-384 (Perkin Elmer) assay plate using a LabCyte Echo 550 (Agilent). DMSO (0.1 μl) was added to columns 12, rows A-H and column 24, rows I-P for the maximum signal control. Compound NSC-617145 (0.1 μl) was added to columns 12, rows I-P and 24, rows A-H for the minimum signal control (100% inhibition). Compounds/DMSO were preincubated for 15 minutes at 25° C. with 5 uL 2×WRN (BV08), prepared as described below, in assay buffer containing 20 mM Bicine (pH=7.5), 1 mM MgCl2, 10 mM KCl, 0.1% Pluronic F-127, 0.005% BSG, 1 mM TCEP. The reaction was initiated by the addition of 5 μl 2× substrate mixture in assay buffer and incubated for 60 minutes at 25° C. The final concentrations of the assay components were 0.15 nM WRN, 5 μM ATP, and 0.1 nM DNA duplex. The final DMSO concentration was 1% and the reference compound concentration (NSC-617145) used for the minimal signal control was 20 μM. The reaction was stopped by the addition of the ADP-Glo Kit components (Promega) as directed and the relative luminescence units (RLU) were read on an Envision 2104 (Perkin Elmer).
# % Inhibition Calculation:
# Where RLU=relative luminescence units, sample=signal in sample well, and MIN and MAX are the respective minimum and maximum signal controls.
# Four-Parameter IC50 Fit Equation:
# Where top and bottom are normally allowed to float but may be fixed at 100 or 0 respectively in a 3-parameter fit. Y is the % inhibition and X is the compound concentration.
# Molecular Biology and virus production. The DNA encoding human Werner helicase (Uniprot Q14191, amino acids 517-1235 with L1074F point mutation) was generated with codon-optimization for E. coli expression and subcloned into the pFastBac vector with a TEV cleavable 8×His tag (WRN-BV08). The baculovirus from the expression plasmid WRN-BV08 was generated from transfection and amplification following the manufacturer's instructions.
# Sf9 cells grown in SF900II media were infected with 1:200 WRN-BV08 P2 virus and incubated for protein expression for 72 h at 27° C. The WRN protein was purified using the following protocol. The cell pellets were thawed and resuspended in buffer A (50 mM Tris, pH 7.5, 500 mM NaCl, 1 mM TCEP, 10% Glycerol) supplemented with 0.5% CHAPS, 1 mM [COMPOUND LEFT OUT], 1 μg/mL Leupeptin, 1 μg/mL Pepstatin, and the Pierce Universal Nuclease and cocktail tablet. Cleared lysates were loaded onto a Ni Sepharose™ excel column and washed with buffer A and bound protein was eluted with buffer A supplemented with 300 mM imidazole. The eluted protein was dialyzed against buffer A and digested by His-tagged TEV (1:5 ratio) overnight at 4° C. ZnCl2 was added into the sample at final 15 μM before loading onto a second Ni Sepharose™ excel column. Untagged WRN protein was eluted from the column with buffer A supplemented with 20 mM imidazole, dialyzed overnight into buffer B (50 mM Tris, pH 7.5, 1 mM TCEP, 10% Glycerol) supplemented with 150 mM NaCl and loaded onto a Heparin column. Proteins were eluted with a step gradient of buffer B supplemented with 150 mM, 200 mM, 300 mM and 500 mM NaCl. […]
# T1 sequence (Q14191 with tags, fused parts or gaps L1074F limits assumed): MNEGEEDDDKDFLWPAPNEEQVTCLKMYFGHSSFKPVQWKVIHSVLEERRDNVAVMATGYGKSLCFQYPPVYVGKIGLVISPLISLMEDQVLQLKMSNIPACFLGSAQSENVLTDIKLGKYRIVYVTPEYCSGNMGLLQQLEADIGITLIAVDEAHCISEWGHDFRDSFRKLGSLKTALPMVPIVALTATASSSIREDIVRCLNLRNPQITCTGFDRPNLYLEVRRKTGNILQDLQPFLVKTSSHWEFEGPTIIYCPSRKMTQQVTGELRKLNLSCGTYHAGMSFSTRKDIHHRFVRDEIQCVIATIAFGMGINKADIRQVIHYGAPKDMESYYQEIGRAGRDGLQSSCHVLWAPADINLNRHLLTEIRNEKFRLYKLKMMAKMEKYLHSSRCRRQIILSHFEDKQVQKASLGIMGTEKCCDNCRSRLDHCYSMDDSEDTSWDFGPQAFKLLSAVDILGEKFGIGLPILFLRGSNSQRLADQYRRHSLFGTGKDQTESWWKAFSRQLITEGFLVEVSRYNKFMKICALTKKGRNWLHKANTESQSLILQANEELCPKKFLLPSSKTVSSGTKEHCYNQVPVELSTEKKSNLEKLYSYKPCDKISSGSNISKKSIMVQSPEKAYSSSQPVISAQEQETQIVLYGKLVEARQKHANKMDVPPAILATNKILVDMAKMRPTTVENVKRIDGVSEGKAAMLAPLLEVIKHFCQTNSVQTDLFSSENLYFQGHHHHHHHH
row,Compound,IC50 [µM]
1,"COc1cc(CN(C(=O)Cc2ccc([C@@H]3C[C@H]3C(F)(F)F)cc2)[C@@H]2C=CS(=O)(=O)C2)ccn1 (mixture of isomers) [I-784, N-[(3R)-1,1-dioxo-2,3-dihydro-1lambda6-thiophen-3-yl]-N-[(2-methoxypyridin-4-yl)methyl]-2-{4-[(1RS,2RS)-2-(trifluoromethyl)cyclopropyl]phenyl}acetamide]",5 to 10
2,"O=C([C@H]1CC[C@@H](c2ccccc2)O1)N(Cc1ccncc1)C1C=CS(=O)(=O)C1 (mixture of isomers) [I-652, rac-(2R,5S)-N-(1,1-dioxo-2,3-dihydro-1lambda6-thiophen-3-yl)-5-phenyl-N-[(pyridin-4-yl)methyl]oxolane-2-carboxamide]",> 50
3,"O=C([C@@H]1CC[C@@H](c2ccccc2)C1)N(Cc1ccncc1)C1C=CS(=O)(=O)C1 (mixture of isomers) [I-655, rac-(1R,3R)-N-(1,1-dioxo-2,3-dihydro-1lambda6-thiophen-3-yl)-3-phenyl-N-[(pyridin-4-yl)methyl]cyclopentane-1-carboxamide]",> 50
4,"O=C([C@H]1CC[C@@H](C(F)(F)F)O1)N(Cc1ccncc1)C1C=CS(=O)(=O)C1 (mixture of isomers) [I-714, rac-(2R,5S)-N-(1,1-dioxo-2,3-dihydro-1lambda6-thiophen-3-yl)-N-[(pyridin-4-yl)methyl]-5-(trifluoromethyl)oxolane-2-carboxamide]",> 50
5,"O=C([C@@H]1[C@H]2C[C@]1(c1cccc(F)c1)CO2)N(Cc1ccncc1)C1C=CS(=O)(=O)C1 (mixture of isomers) [I-715, rac-(1R,4S,5S)-N-(1,1-dioxo-2,3-dihydro-1lambda6-thiophen-3-yl)-4-(3-fluorophenyl)-N-[(pyridin-4-yl)methyl]-2-oxabicyclo[2.1.1]hexane-5-carboxamide]",> 50
6,"O=C([C@H]1CC[C@@H](Cn2cccn2)O1)N(Cc1ccncc1)C1C=CS(=O)(=O)C1 (mixture of isomers) [I-716, rac-(2R,5S)-N-(1,1-dioxo-2,3-dihydro-1lambda6-thiophen-3-yl)-5-[(1H-pyrazol-1-yl)methyl]-N-[(pyridin-4-yl)methyl]oxolane-2-carboxamide]",> 50
7,"O=C([C@@H]1[C@@H]2CC[C@@]1(c1cccc(Br)c1)C2)N(Cc1ccncc1)C1C=CS(=O)(=O)C1 (mixture of isomers) [I-755, rac-(1R,4R,5R)-1-(3-bromophenyl)-N-(1,1-dioxo-2,3-dihydro-1lambda6-thiophen-3-yl)-N-[(pyridin-4-yl)methyl]bicyclo[2.1.1]hexane-5-carboxamide]",> 50
8,"CC(C)(O)c1cc(CN(C(=O)Cn2cc(-c3cc(F)c(F)c(F)c3)cn2)C2C=CS(=O)(=O)C2)ccn1 (single isomer, unassigned) [I-1]",< 0.5
9,"COC(C(=O)N(Cc1ccnc(C(C)(C)O)c1)[C@@H]1C=CS(=O)(=O)C1)c1ccc(-c2ccc(F)c(F)c2)cc1F (single isomer, unassigned) [I-2]",< 0.5
10,"O=C(Cc1ccc(S(F)(F)(F)(F)F)cc1)N(Cc1nc(C2CC2)cs1)C1C=CS(=O)(=O)C1 (single isomer, unassigned) [I-4]",< 0.5
11,"O=C(Cn1cc(-c2ccc(F)c(F)c2)cn1)N(Cc1nc(C2CC2)cs1)C1C=CS(=O)(=O)C1 (single isomer, unassigned) [I-5, N-((4-cyclopropylthiazol-2-yl)methyl)-2-(4-(3,4-difluorophenyl)-1H-pyrazol-1-yl)-N-(1,1-dioxido-2,3-dihydrothiophen-3-yl)acetamide]",< 0.5
12,"CN(C)C(=O)C(C(=O)N(Cc1ccnc(C(C)(C)O)c1)C1C=CS(=O)(=O)C1)c1ccc(-c2ccc(F)cc2)cc1 (single isomer, unassigned) [I-8, N1-(-1,1-dioxido-2,3-dihydrothiophen-3-yl)-2-(4′-fluoro-[1,1′-biphenyl]-4-yl)-N1-((2-(2-hydroxypropan-2-yl)pyridin-4-yl)methyl)-N3,N3-dimethylmalonamide]",< 0.5
13,"COC(C(=O)N(Cc1ccnc(C(C)(C)O)c1)C1C=CS(=O)(=O)C1)c1ccc(-c2ccc(F)cc2)cc1F (single isomer, unassigned) [I-10, (2R*)-2-{3,4′-difluoro-[1,1′-biphenyl]-4-yl}-N-[(3R**)-1,1-dioxo-2,3-dihydro-1lambda6-thiophen-3-yl]-N-{[2-(2-hydroxypropan-2-yl)pyridin-4-yl]methyl}-2-methoxyacetamide]",< 0.5
14,"CC(C)(O)c1cc(CN(C(=O)Cc2ccc(-c3ccc(F)c(F)c3)cc2F)C2C=CS(=O)(=O)C2)ccn1 (single isomer, unassigned) [I-11]",< 0.5
15,"CN(C)C(=O)C(C(=O)N(Cc1ccnc(C(C)(C)O)c1)C1C=CS(=O)(=O)C1)c1ccc(-c2ccc(F)cc2)cc1F (single isomer, unassigned) [I-12, (2R**)-2-{3,4′-difluoro-[1,1′-biphenyl]-4-yl}-N-[(3R*)-1,1-dioxo-2,3-dihydro-1lambda6-thiophen-3-yl]-N-{[2-(2-hydroxypropan-2-yl)pyridin-4-yl]methyl}-N′,N′-dimethylpropanediamide]",< 0.5
16,"CN(C)C(=O)C(C(=O)N(Cc1ccncc1)C1C=CS(=O)(=O)C1)c1ccc(-c2ccc(F)cc2)cc1 (single isomer, unassigned) [I-27, (2R**)-N′-[(3R*)-1,1-dioxo-2,3-dihydro-1lambda6-thiophen-3-yl]-2-{4′-fluoro-[1,1′-biphenyl]-4-yl}-N,N-dimethyl-N′-[(pyridin-4-yl)methyl]propanediamide]",< 0.5
17,"COc1cc(CN(C(=O)Cc2ccc(-n3cccc3C)cc2F)C2C=CS(=O)(=O)C2)ccn1 (single isomer, unassigned) [I-31]",< 0.5
18,"COc1cc(CN(C(=O)C(OC)c2ccc(-c3ccc(F)cc3)cc2F)C2C=CS(=O)(=O)C2)ccn1 (single isomer, unassigned) [I-33, (2R*)-2-{3,4′-difluoro-[1,1′-biphenyl]-4-yl}-N-[(3R**)-1,1-dioxo-2,3-dihydro-1lambda6-thiophen-3-yl]-2-methoxy-N-[(2-methoxypyridin-4-yl)methyl]acetamide]",< 0.5
19,"COc1cc(CN(C(=O)Cc2ccc(-c3ccc(F)c(F)c3)cc2F)C2C=CS(=O)(=O)C2)ccn1 (single isomer, unassigned) [I-35]",< 0.5
20,"CC(C)(O)c1cc(CN(C(=O)Cc2ccc(-n3cccc3)cc2F)C2C=CS(=O)(=O)C2)ccn1 (single isomer, unassigned) [I-40]",< 0.5
21,"CC(C)(O)c1cc(CN(C(=O)Cc2ncc(-c3ccc(F)c(F)c3)cc2F)C2C=CS(=O)(=O)C2)ccn1 (single isomer, unassigned) [I-50, 2-(5-(3,4-difluorophenyl)-3-fluoropyridin-2-yl)-N-(1,1-dioxido-2,3-dihydrothiophen-3-yl)-N-((2-(2-hydroxypropan-2-yl)pyridin-4-yl)methyl)acetamide]",< 0.5
22,"O=C(Cc1ccc(S(F)(F)(F)(F)F)cc1)N(Cc1ccncc1)C1C=CS(=O)(=O)C1 (single isomer, unassigned) [I-51]",< 0.5
23,"COc1cc(CN(C(=O)Cc2ccc(C(F)(F)F)cc2)C2C=CS(=O)(=O)C2)ccn1 (single isomer, unassigned) [I-57]",< 0.5
